Experimental data as given in patent US20240189317A1, “ANTIVIRAL COMPOSITIONS AND METHODS” (AI Therapeutics, Inc., priority 2021, published 2024).
Where two headings read alike, the source gives them in different places.

Tested on: SARS-CoV-2 (USA-WA1/2020)
Assay type: cell-based
Conditions: Caco-2 cells, vs DMSO controls

Which “Percent Infection (Exp 1)” value (apilimod 31.25 nM single agent) does the source give for `Cc1cccc(/C=N/Nc2cc(N3CCOCC3)nc(OCCc3ccccn3)n2)c1` [Apilimod] here?
The value was 93.632%.

And the “Percent Infection (Exp 2)” value (apilimod 31.25 nM single agent)?
The value was 74.342%.

And the “Percent Infection (Exp 1)” value (apilimod 62.5 nM single agent)?
The value was 75.308%.

What about the “Percent Infection (Exp 2)” value (apilimod 62.5 nM single agent) of the same compound?
Its value is 53.914%.

And the “Percent Infection (Exp 1)” value (apilimod 125 nM single agent)?
Its value is 35.618%.

And the “Percent Infection (Exp 2)” value (apilimod 125 nM single agent)?
The value was 37.259%.

What about the “Percent Infection (Exp 1)” value (apilimod 250 nM single agent) of the same compound?
The value was 11.935%.

And the “Percent Infection (Exp 2)” value (apilimod 250 nM single agent)?
The value was 29.685%.

And the “Percent Infection (Exp 1)” value (apilimod 500 nM single agent)?
The value was 12.267%.

And the “Percent Infection (Exp 2)” value (apilimod 500 nM single agent)?
The value was 18.730%.

And the “Percent Infection (Exp 1)” value (apilimod 1000 nM single agent)?
Its value is 4.524%.

And the “Percent Infection (Exp 2)” value (apilimod 1000 nM single agent)?
The value was 2.968%.

What about the “Percent Infection (Exp 1)” value (apilimod 2000 nM single agent) of the same compound?
The value was 0.591%.

And the “Percent Infection (Exp 2)” value (apilimod 2000 nM single agent)?
The value was 0.297%.
